Measured values reported in patent publication US20240343727A1, “PYRIDAZINONE OR PYRIDINONE COMPOUNDS, PREPARATION METHODS AND USES THEREOF” (InventisBio Co., Ltd., priority 2021, published 2024).

The compounds below were run against T1, PARP7 (Homo sapiens, UniProt Q7Z3E1) (assay: PARP7 TR-FRET assay (binding, displacement of biotinylated Probe A)). Conditions: 6 nM PARP7, 2 nM Probe A, 25° C., 30 min.
T1 sequence (Q7Z3E1 1-657): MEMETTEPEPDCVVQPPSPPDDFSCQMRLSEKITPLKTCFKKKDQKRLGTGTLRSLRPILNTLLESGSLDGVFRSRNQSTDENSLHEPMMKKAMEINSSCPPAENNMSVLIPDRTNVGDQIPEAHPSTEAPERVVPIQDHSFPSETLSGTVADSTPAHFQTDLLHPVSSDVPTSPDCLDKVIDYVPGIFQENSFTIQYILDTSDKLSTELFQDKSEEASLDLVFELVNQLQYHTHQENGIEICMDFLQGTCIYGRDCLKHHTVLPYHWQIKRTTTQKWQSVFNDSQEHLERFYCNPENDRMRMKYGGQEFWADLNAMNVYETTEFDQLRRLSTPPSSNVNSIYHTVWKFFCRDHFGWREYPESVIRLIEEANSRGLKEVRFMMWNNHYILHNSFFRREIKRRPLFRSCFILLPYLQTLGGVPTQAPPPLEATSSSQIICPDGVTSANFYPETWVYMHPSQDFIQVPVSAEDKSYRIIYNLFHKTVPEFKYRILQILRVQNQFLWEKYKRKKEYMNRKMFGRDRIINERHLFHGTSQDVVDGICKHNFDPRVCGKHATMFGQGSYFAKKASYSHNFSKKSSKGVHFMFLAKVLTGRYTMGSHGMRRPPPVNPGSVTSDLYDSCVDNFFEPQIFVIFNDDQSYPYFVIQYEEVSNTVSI
Description: Biological Assay Example A: PARP7 TR-FRET Assay
A time-resolved fluorescence energy transfer (TR-FRET) assay was used to test binding activity of compounds to PARP7. Two microliter test compound was added in 384-well plate. Reactions were performed in a 6 uL volume by adding 4 uL mixture of PARP7 and Probe A (a biotinylated probe binding to the PARP7: N-(6-(2-(4-((2-(6-oxo-5-(trifluoromethyl)-1,6-dihydropyridazin-4-yl) isoindolin-5-yl) oxy) piperidin-1-yl) acetamido) hexyl)-5-((3aS,4S,6aR)-2-oxohexahydro-1H-thieno [3,4-d]imidazol-4-yl) pentanamide, made as reported in WO2019212937A1) in assay buffer (20 mM HEPES pH 8.0, 100 mM NaCl, 0.1% BSA, 2 mM DTT and 0.002% Tween20). The final concentration of PARP7 and Probe A were 6 nM and 2 nM, incubating with test compounds at 25° C. for 30 min. Four microliter ULight-anti 6xHis and LANCE Eu-W1024 labeled streptavidin (PerkinElmer) were added with the final concentration of ULight-anti 6xHis and LANCE Eu-W1024 at 4 nM and 0.25 nM. The reaction mixture was incubated at 25° C. for 30 min. The plate was read on a Tecan Spark plate reader (excitation wavelength at 320 nm, emission wavelength at 615 nm and 665 nm with a 90 us delay. The ratio of the 665/615 nm emission was calculated for each well to the amount of complex of PARP7 and Probe A in each well was calculated. The 0.25% DMSO vehicle was used as control and no PARP7 well was as blank well. Inhibition rate is calculated with the formula of % inhibition=100-100*(TRFcmpd-TRFblank)/(TRFcontrol−TRFblank). Inhibition IC50 is calculated with the equation of Y=Bottom+ (Top-Bottom)/(1+10^((LogIC50−X) *Hill Slope))

First: Cc1c(Oc2cccc(C(=O)N3CC[C@@H](Oc4ncc(C(F)(F)F)cn4)C3)c2)n[nH]c(=O)c1C(F)(F)F [Compound 29]
Second: COC1CN(c2c(Oc3cccc(C(=O)N4CCN(c5ncc(C(F)(F)F)cn5)CC4)c3)n[nH]c(=O)c2C(F)(F)F)C1 [Compound 166]
The IC50 of the first is higher: over 1 µM for the first, under 0.1 µM for the second.

`N#Cc1ccc(N2CCN(C(=O)CC3CN(c4cc(C(F)(F)F)c(=O)[nH]n4)c4cc(C#N)ccc4O3)CC2)nc1` (single isomer, unassigned) [Compound 215] and `O=C(CC1CN(c2cc(C(F)(F)F)c(=O)[nH]n2)c2cc(F)ccc2O1)N1CCN(c2ncc(OC(F)(F)F)cn2)CC1` (single isomer, unassigned) [Compound 311] cannot be ordered by IC50: under 0.1 µM for the first, under 0.1 µM for the second.

`C[C@@H]1CN(c2n[nH]c(=O)c3c(F)cccc23)C[C@H](CC(=O)N2CCN(c3ncc(C(F)(F)F)cn3)CC2)O1` (stereo in doubt) [Compound 118] and `C[C@H]1CN(c2n[nH]c(=O)c3c(F)cccc23)C[C@H](CC(=O)N2CCN(c3ncc(C(F)(F)F)cn3)CC2)O1` (stereo in doubt) [Compound 91] fall in the same range of IC50: 0.1 to 1 µM for the first, 0.1 to 1 µM for the second.

First: O=C(CC1CN(c2n[nH]c(=O)c3ccc(OCC(F)F)cc23)CCO1)N1CCN(c2ncc(C(F)(F)F)cn2)CC1 (single isomer, unassigned) [Compound 211]
Second: O=C(CC1CN(c2n[nH]c(=O)c3ccc(F)cc23)CCO1)N1CCN(c2ncc(C(F)(F)F)cn2)CC1 (single isomer, unassigned) [Compound 51]
The IC50 of the first is lower: under 0.1 µM for the first, 0.1 to 1 µM for the second.

Compared with `N#Cc1ccc(N2CCN(C(=O)[C@@H]3COCCN3c3cc(C(F)(F)F)c(=O)[nH]n3)CC2)nc1` [Compound 37], `C#Cc1cc(N2CCOCC2C(=O)N2CCN(c3ncc(C(F)(F)F)cn3)CC2)n[nH]c1=O` (centres unmarked) [Compound 46] is higher in IC50: under 0.1 µM for the first, over 1 µM for the second. The first is the more potent here.

First: O=C(CC1CN(c2n[nH]c(=O)c3c(F)cccc23)CCO1)N1CCN(c2ncc(C(F)(F)F)cn2)CC1 (single isomer, unassigned) [Compound 94]
Second: C[C@@H]1CN(c2n[nH]c(=O)c3c(F)cccc23)C[C@@H](CC(=O)N2CCN(c3ncc(C(F)(F)F)cn3)CC2)O1 (stereo in doubt) [Compound 96]
The IC50 of the first is lower: under 0.1 µM for the first, 0.1 to 1 µM for the second.

`COCC(=O)Nc1ccc2c(c1)N(c1cc(C(F)(F)F)c(=O)[nH]n1)CC(CC(=O)N1CCN(c3ncc(C(F)(F)F)cn3)CC1)O2` (single isomer, unassigned) [Compound 283] and `CS(=O)(=O)Cc1ccc2c(c1)N(c1cc(C(F)(F)F)c(=O)[nH]n1)CC(CC(=O)N1CCN(c3ncc(C(F)(F)F)cn3)CC1)O2` (single isomer, unassigned) [Compound 270] cannot be ordered by IC50: under 0.1 µM for the first, under 0.1 µM for the second.

Compared with `O=C(CCO[C@H]1CCNc2c1n[nH]c(=O)c2C(F)(F)F)N1CCN(c2ncc(C(F)(F)F)cn2)CC1` (single isomer, unassigned) [Compound 7], `O=C(COC1CCOc2c1n[nH]c(=O)c2C(F)(F)F)N1CCN(c2ncc(C(F)(F)F)cn2)CC1` (single isomer, unassigned) [Compound 11] is higher in IC50: 0.1 to 1 µM for the first, over 1 µM for the second.

`O=C(c1cccc(Oc2n[nH]c(=O)c(C(F)(F)F)c2NCC2CC2)c1)N1CCN(c2ncc(C(F)(F)F)cn2)CC1` [Compound 204] and `O=C(c1cccc(Oc2n[nH]c(=O)c(C(F)(F)F)c2N2CC(F)C2)c1)N1CCN(c2ncc(C(F)(F)F)cn2)CC1` [Compound 85] cannot be ordered by IC50: under 0.1 µM for the first, under 0.1 µM for the second.

First: CC(=O)N1CCN(C(=O)c2cccc(Oc3n[nH]c(=O)c(C(F)(F)F)c3N3CC4(CCC4)C3)c2)CC1 [Compound 160]
Second: O=C(c1cccc(Oc2n[nH]c(=O)c(C(F)(F)F)c2N2CC3(CCC3)C2)c1)N1CCC(F)(F)CC1 [Compound 159]
The IC50 of the first is lower: under 0.1 µM for the first, 0.1 to 1 µM for the second.

`O=C(CC[C@@H]1CCCN1c1n[nH]c(=O)c2c(F)cccc12)N1CCN(c2ncc(C(F)(F)F)cn2)CC1` [Compound 97] and `C[C@H]1CN(c2n[nH]c(=O)c3c(F)cccc23)C[C@@H](CC(=O)N2CCN(c3ncc(C(F)(F)F)cn3)CC2)O1` (stereo in doubt) [Compound 95] cannot be ordered by IC50: under 0.1 µM for the first, under 0.1 µM for the second.

`N#Cc1ccc(N2CCN(C(=O)c3cccc(Oc4n[nH]c(=O)c(C(F)(F)F)c4N4CC5(CCC5)C4)c3)CC2)nc1` [Compound 161] and `C#Cc1cnc(N2CCN(C(=O)c3cccc(Oc4n[nH]c(=O)c(C(F)(F)F)c4N4CC5(COC5)C4)c3)CC2)nc1` [Compound 302] cannot be ordered by IC50: under 0.1 µM for the first, under 0.1 µM for the second.

`O=C(CC1CN(c2n[nH]c(=O)c3ccc(Cl)cc23)CCO1)N1CCN(c2ncc(C(F)(F)F)cn2)CC1` (single isomer, unassigned) [Compound 122] and `O=C(CC1CN(c2n[nH]c(=O)c3ccccc23)CCO1)N1CCN(c2ncc(C(F)(F)F)cn2)CC1` (single isomer, unassigned) [Compound 107] fall in the same range of IC50: 0.1 to 1 µM for the first, 0.1 to 1 µM for the second.

First: COCC(=O)Nc1ccc2c(c1)N(c1cc(C(F)(F)F)c(=O)[nH]n1)CC(CC(=O)N1CCN(c3ncc(C(F)(F)F)cn3)CC1)O2 (single isomer, unassigned) [Compound 284]
Second: O=C(CC1CN(c2cc(C(F)(F)F)c(=O)[nH]n2)c2ccc(F)cc2O1)N1CCN(c2ncc(C(F)(F)F)cn2)CC1 (single isomer, unassigned) [Compound 157]
The IC50 of the first is higher: 0.1 to 1 µM for the first, under 0.1 µM for the second.

Compared with `O=C(CC1CN(c2cc(C(F)(F)F)c(=O)[nH]n2)c2cc(N3CCOCC3=O)ccc2O1)N1CCN(c2ncc(C(F)(F)F)cn2)CC1` (single isomer, unassigned) [Compound 281], `O=C(c1ccc2c(c1)N(c1cc(C(F)(F)F)c(=O)[nH]n1)CCO2)N1CCN(c2ncc(C(F)(F)F)cn2)CC1` [Compound 30] is higher in IC50: under 0.1 µM for the first, 0.1 to 1 µM for the second. The first is the more potent here.

`O=C(c1cccc(Oc2n[nH]c(=O)c(C(F)(F)F)c2N2CC3(CCO3)C2)c1)N1CC2CCC(C1)N2c1ncc(C(F)(F)F)cn1` [Compound 257] and `O=C(c1cccc(Oc2n[nH]c(=O)c(C(F)(F)F)c2N2CC3(C2)CC(F)(F)C3)c1)N1CCN(c2ncc(C(F)(F)F)cn2)CC1` [Compound 175] cannot be ordered by IC50: under 0.1 µM for the first, under 0.1 µM for the second.

Going from `C#Cc1c2c(n[nH]c1=O)[C@H](OCC(=O)N1CCN(c3ncc(C(F)(F)F)cn3)CC1)CCO2` [Compound 12] to `O=C(COC1CCOc2c1n[nH]c(=O)c2C1CC1)N1CCN(c2ncc(C(F)(F)F)cn2)CC1` (single isomer, unassigned) [Compound 129], the IC50 rises from under 0.1 µM to over 1 µM.

`O=C(CC1CN(c2cc(C(F)(F)F)c(=O)[nH]n2)CCC1(F)F)N1CCN(c2ncc(C(F)(F)F)cn2)CC1` (single isomer, unassigned) [Compound 80] and `O=C(CC1CN(c2n[nH]c(=O)c3ccc(Cl)cc23)CCO1)N1CCN(c2ncc(C(F)(F)F)cn2)CC1` (single isomer, unassigned) [Compound 100] cannot be ordered by IC50: under 0.1 µM for the first, under 0.1 µM for the second.

`N#Cc1cnc(N2CCN(C(=O)c3cccc(Oc4n[nH]c(=O)c(C(F)(F)F)c4N4CC(C5CC5)C4)c3)CC2)nc1` [Compound 303] and `C#Cc1cnc(N2CCN(C(=O)c3cncc(Oc4n[nH]c(=O)c(C(F)(F)F)c4N4CC5(C4)CC(F)(F)C5)c3)CC2)nc1` [Compound 299] cannot be ordered by IC50: under 0.1 µM for the first, under 0.1 µM for the second.

First: C[C@H]1CN(c2n[nH]c(=O)c3cccc(F)c23)C[C@@H](CC(=O)N2CCN(c3ncc(C(F)(F)F)cn3)CC2)O1 (stereo in doubt) [Compound 120]
Second: O=C(CC1CN(c2n[nH]c(=O)c3ccc(N4CCCC4)cc23)CCO1)N1CCN(c2ncc(C(F)(F)F)cn2)CC1 (single isomer, unassigned) [Compound 258]
The IC50 of the first is higher: 0.1 to 1 µM for the first, under 0.1 µM for the second.

`O=C(c1cncc(Oc2n[nH]c(=O)c(C(F)(F)F)c2N2CC3(C2)CC(F)(F)C3)c1)N1CCN(c2ncc(C(F)(F)F)cn2)CC1` [Compound 238] and `Cc1c(Oc2cncc(C(=O)N3CCN(c4ncc(C(F)(F)F)cn4)CC3)c2)n[nH]c(=O)c1C(F)(F)F` [Compound 20] cannot be ordered by IC50: under 0.1 µM for the first, under 0.1 µM for the second.

Compared with `O=C(c1cccc(Oc2n[nH]c(=O)cc2C(F)(F)F)c1)N1CCN(c2ncc(C(F)(F)F)cn2)CC1` [Compound 18], `Cc1cc(Oc2n[nH]c(=O)c(C(F)(F)F)c2C)cc(C(=O)N2CCN(c3ncc(C(F)(F)F)cn3)CC2)c1` [Compound 23] is lower in IC50: over 1 µM for the first, under 0.1 µM for the second. The second is the more potent here.
